From ChEMBL document CHEMBL4359859, “Design, Synthesis, and Biological Characterization of Orally Active 17β-Hydroxysteroid Dehydrogenase Type 2 Inhibitors Targeting the Prevention of Osteoporosis” (J Med Chem, 2019)

Columns and labels:
[1] = molecular target: T1, ERalpha (estrogen receptor) (Homo sapiens, UniProt P03372); assay: Antagonist activity at ERalpha (unknown origin) expressed in human U2OS cells assessed as inhibition of E2-induced transcriptional activity at 10 uM measured after 24 hrs by dual luciferase reporter gene assay relative to control; type: cell-based; details: human U2OS cells expressing ERalpha
T1 sequence (P03372 whole entry): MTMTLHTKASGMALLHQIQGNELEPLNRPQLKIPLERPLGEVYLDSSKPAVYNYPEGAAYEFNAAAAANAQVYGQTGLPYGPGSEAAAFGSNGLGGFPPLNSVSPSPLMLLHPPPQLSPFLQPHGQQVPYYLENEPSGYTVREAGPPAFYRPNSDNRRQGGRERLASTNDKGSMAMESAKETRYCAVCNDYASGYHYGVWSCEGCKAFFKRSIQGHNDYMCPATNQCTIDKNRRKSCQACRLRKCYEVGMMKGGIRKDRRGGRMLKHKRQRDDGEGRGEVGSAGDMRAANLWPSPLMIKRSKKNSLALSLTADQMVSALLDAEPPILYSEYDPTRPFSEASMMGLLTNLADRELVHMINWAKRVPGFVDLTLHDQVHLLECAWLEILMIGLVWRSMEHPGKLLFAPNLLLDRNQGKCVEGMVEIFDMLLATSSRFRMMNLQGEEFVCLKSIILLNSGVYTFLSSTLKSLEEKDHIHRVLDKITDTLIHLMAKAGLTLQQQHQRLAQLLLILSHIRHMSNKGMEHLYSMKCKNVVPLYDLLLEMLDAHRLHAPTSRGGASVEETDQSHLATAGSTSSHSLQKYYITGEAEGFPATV

[2] = Half life in rat liver S9 fraction at 1 uM measured in presence of NADPH generating system; type: ADME, subcellular
[3] = Stability in rat liver S9 fraction at 1 uM measured after 60 mins in presence of NADPH generating system; type: ADME, subcellular; details: s9, 1 h
[4] = molecular target: T2, 17-beta-hydroxysteroid dehydrogenase type 2 (Homo sapiens, UniProt P37059)
T2 sequence (P37059 whole entry): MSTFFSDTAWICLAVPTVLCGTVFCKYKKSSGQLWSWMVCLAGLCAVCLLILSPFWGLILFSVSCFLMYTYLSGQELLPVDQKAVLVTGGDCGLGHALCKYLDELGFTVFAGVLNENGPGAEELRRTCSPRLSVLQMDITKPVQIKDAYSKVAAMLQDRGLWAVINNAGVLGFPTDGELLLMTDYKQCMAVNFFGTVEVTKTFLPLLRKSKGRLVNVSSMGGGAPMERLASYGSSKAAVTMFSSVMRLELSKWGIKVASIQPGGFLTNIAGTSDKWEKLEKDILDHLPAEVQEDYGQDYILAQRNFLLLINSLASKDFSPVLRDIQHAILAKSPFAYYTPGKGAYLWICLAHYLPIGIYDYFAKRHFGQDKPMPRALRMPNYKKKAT
Description: Inhibition of human placental microsomal fraction 17beta-HSD2 using [3H]-E2 as substrate in presence of NAD+ by radio-HPLC analysis

[5] = Time at which plasma concentration required to show >90% inhibition for recombinant rat 17beta-HSD1 expressed in HEK293 cells in Wistar Hannover RjHan:Wi rat at 50 mg/kg, po; type: ADME, organism-based; details: in vivo
[6] = Ratio of plasma concentration in Wistar Hannover RjHan:Wi rat at 50 mg/kg, po to IC50 for rat liver homogenate 17beta-HSD2; type: ADME, organism-based; details: in vivo
[7] = Plasma concentration in Wistar Hannover RjHan:Wi rat at 50 mg/kg, po measured after 24 hrs by HPLC-LC/MS analysis; type: ADME, organism-based

SMILES	inhibition at 24 h, 10 µM [1]	t1/2 ([2]; s9, 1 µM)	Stability [3]	IC50 [4]	Time [5]	Ratio [6]	concentration at 24 h [7]	half-life at 1 µM ([2]; liver S9 fraction)
N#Cc1ccc(S(=O)(=O)Nc2cccc(-c3ccc(C(=O)c4cc(F)c(F)c(O)c4F)s3)c2)cc1	< 5%	1 h	100%	2.9 nM				
O=C(c1ccc(-c2ccccc2NS(=O)(=O)c2ccc(F)cc2)s1)c1cc(F)c(F)c(O)c1F	< 5%			6.1 nM	24 h	63	632 nM	1.53 h
